Reference: patent publication US11647751B2, “Use of phosphorus containing herbicides as desiccant for plants of the genus Saccharum” (BASF SE, priority 2013, dated 2023)

Tested on: Saccharum officinarum plants
Test: Field trial: desiccation of sugarcane leaves after application of diluted glufosinate-ammonium compositions
Type: in vivo
Details: growth stage BBCH 49 (approx. 300 cm), evaluation 2 weeks after application
Description: The compositions described in the table above were diluted with water and applied to a field of Saccharum officinarum plants at growth stage BBCH 49 (approximately 300 cm growth height; corresponding to about 2 weeks before harvest), such that the amount of glufosinate ammonium was 800 g/ha or 1000 g/ha, respectively.

CP(=O)(O)CCC(N)C(=O)O (centres unmarked) [glufosinate ammonium, 2-amino-4-[hydroxy(methyl)phosphinoyl]butanoic acid]
desiccation of sugarcane leaves (800 g/ha glufosinate ammonium): 54% | desiccation of sugarcane leaves (1000 g/ha glufosinate ammonium): 60%
